Here are results for seven molecules from patent US9079897B2, “Imidazo-pyridine derivatives as activin-like receptor kinase (ALK4 or ALK5) inhibitors” (NOVARTIS AG, priority 2008, dated 2015).

Data set [1] concerns the target T1, human ALK5 (kinase domain, ALK5 T204D) (Homo sapiens, UniProt P36897, T204D).
T1 construct: The kinase domain of human ALK5 (amino acids 200-503); made in house; host or cells: insect cells (baculovirus expression)
T1 sequence (P36897 200-503 T204D): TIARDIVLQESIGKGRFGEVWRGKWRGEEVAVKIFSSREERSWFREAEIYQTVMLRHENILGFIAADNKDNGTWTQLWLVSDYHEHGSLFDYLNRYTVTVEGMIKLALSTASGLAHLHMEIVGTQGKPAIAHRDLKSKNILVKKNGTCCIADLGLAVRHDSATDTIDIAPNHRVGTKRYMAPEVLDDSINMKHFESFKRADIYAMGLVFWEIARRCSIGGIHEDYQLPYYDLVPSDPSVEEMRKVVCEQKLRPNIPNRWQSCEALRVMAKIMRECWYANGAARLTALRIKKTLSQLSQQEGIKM
Nature of the data set: ALK5 kinase activity, [33P] phosphate incorporation into casein. The format is biochemical. Particulars: casein substrate. Here is the method: The kinase activity of ALK5 is assessed by measuring radiolabelled phosphate [33P] incorporation in to the generic substrate, casein. The kinase domain of human ALK5 (amino acids 200-503) is fused to an N-terminal histidine tag. The kinase activity of ALK5 is rendered constitutive via point mutation at amino acid 204 (threonine to aspartate modification, ALK5 T204D) and the kinase construct is engineered to be expressed from a baculovirus expression construct in insect cells. The purified, recombinantly-expressed histidine-tagged ALK5 T204D protein is dissolved at 5.4 mg/ml in 50 mM Tris-HCl pH 8.0, 150 mM NaCl, 5 mM DTT. ALK5 T204D is dissolved to 2.5 μg/ml in assay buffer (Assay buffer: 20 mM Tris-HCl pH 7.4, 10 mM MgCl2, 2 mM MnCl2) on the day of use.
Test compounds and reference compounds are dissolved in assay buffer without DTT containing 5% (v/v) DMSO. Stock solutions of test and reference compounds are diluted in assay buffer with DTT (1.25 mM) containing 4.5% (v/v) DMSO. 10 μl of test or reference compound are added to the appropriate wells of 96 well U-bottomed plate. Total enzyme activity is determined by measuring ALK5 T204D activity in the absence of ALK5 kinase inhibitor reference compounds. Non-specific binding (NSB) is determined by measuring the activity of ALK5 T204D in the presence of ALK5 kinase inhibitor reference compounds. 10 μl of dephosphorylated casein stock solution (dephosphorylated casein is dissolved in ddH2O at 20 mg/ml) is added per well (200 μg/well final assay concentration). 20 μl of ALK5 T204D (2.5 μg/ml solution) is added per well (50 ng/well final assay concentration). The plates are left to incubate at room temperature for 10 minutes.
10 μl of ATP mix is added to the well to initiate the reaction (0.66 nM [^33P]ATP/1 μM unlabelled ATP/well final assay concentration). The ATP mix is prepared as follows, unlabelled ATP (3 mM) is dissolved in ddH2O and pH adjusted to 7.4. The stock concentration of [^33P]ATP is 10 μCi/μl. The appropriate volume of [^33P]ATP is added to unlabelled ATP solution such that the final assay concentration per well is 0.1 μCi. Following addition of the ATP mix, the plates are incubated at room temperature for 50 minutes. The kinase reaction is terminated by the addition of 50 μL Stop Buffer (20 mM Tris-HCl pH 7.4, 10 mM EDTA).
75 μl/well from the reaction plate is transferred to a Multiscreen-IP plate (MultiScreen-IP plates are prepared by added 50 μL of 70% (v/v) ethanol per well and incubated for 5 minutes at room temperature. The ethanol is removed by aspiration via a MultiScreen HTS Vaccum Manifold unit (Millipore, Cat no: MSVMHT500). The plates are washed twice by adding 200 μl/well ddH2O). The MultiScreen-IP plate is incubated at room temperature for 30 minutes to allowing binding of casein to the plate. The MultiScreen-IP plates are washed three times by adding 200 μl/well 100 mM phosphoric acid solution and the gasket is carefully removed from the back of the MultiScreen-IP plate and the plate dried in the oven for 30 minutes. The MultiScreen-IP plate is backsealed, 50 μL of MICROSCINT™20 is added, then the plates are topsealed and radiolabelled casein detected and quantified on a TOPCOUNT™ plate-reader using the ^33P scintillation protocol.

In data set [2] the test system is dimethylnitrosamine induced liver fibrosis. Particulars: rat, cited from earlier work.
The test system of data set [3] is bleomycin-induced pulmonary fibrosis. Particulars: bleomycin-treated rats; cited from earlier work.
Where [4] appears, read: given therapeutically, dimethylnitrosamine induced liver fibrosis.

As to `OC1CCC(Nc2ccc3ncn(-c4ccnc(-c5ccoc5)c4)c3n2)CC1` (stereo not shown) [Example 1.1, 4-[3-(2-Furan-3-yl-pyridin-4-yl)-3H-imidazo[4,5-b]pyridin-5-ylamino]-cyclohexanol], the 50% inhibitory concentration (IC50) in data set [1] was 13 nM.

Turning to `c1ccc(-c2cc(-c3cn[nH]c3-c3ccccn3)ccn2)cc1` [GW6604], the side effects result in data set [2] (3 weeks treatment) is listed as “no obvious side effects”. In addition, in data set [2] (setting [4]), the “inhibition of extracellular matrix deposition” value is on record as 60% and the “prevention of death rate” value was 40%.

Molecule `O[C@H]1CCC[C@H](Nc2ccc3ncn(-c4ccnc(-c5ccc(F)cc5)c4)c3n2)C1` (racemic) [Example 1.9, (1SR, 3SR)-3-{3-[2-(4-Fluorophenyl)-pyridin-4-yl)-3H-imidazo[4,5-b]pyridin-5-ylamino}-cyclohexanol] showed an IC50 in data set [1] of 318 nM.

In data set [1], `Cc1ccn(-c2cc(-n3cnc4ccc(NC5CCCC(O)C5)nc43)ccn2)n1` (stereo not drawn) [Example 1.13, (1SR,3RS)-3-{3-[2-(3-Methyl-pyrazol-1-yl)pyridine-4-yl]-3H-imidzo[4,5-b]pyridin-5-ylamino}-cyclohexanol] had a half-inhibitory concentration (IC50) of 38 nM.

For `O[C@H]1CCC[C@@H](Nc2ccc3ncn(-c4ccnc(-c5ccoc5)c4)c3n2)C1` (racemic) [Example 1.5, (1SR, 3RS)-3-[3-(2-Furan-3-yl-pyridin-4-yl)-3H-imidazo[4,5-b]pyridin-5-ylamino]-cyclohexanol], in data set [1], inhibition was half-maximal at 6 nM (IC50).

With `O[C@H]1CCC[C@@H](Nc2ccc3ncn(-c4ccnc(-n5cccn5)c4)c3n2)C1` (racemic) [Example 1.17, (1SR,3RS)-3-[3-(2-Pyrazol-1-yl-pyridine-4-yl)-3H-imidazo[4,5-b]pyridin-5-ylamino]-cyclohexanol], in data set [1], the IC50 worked out at 56 nM.

B1: follistatin: an antagonist of activin signalling (protein, UniProt P19883 30-344, looked up)
Follistatin: GNCWLRQAKNGRCQVLYKTELSKEECCSTGRLSTSWTEEDVNDNTLFKWMIFNGGAPNCIPCKETCENVDCGPGKKCRMNKKNKPRCVCAPDCSNITWKGPVCGLDGKTYRNECALLKARCKEQPELEVQYQGRCKKTCRDVFCPGSSTCVVDQTNNAYCVTCNRICPEPASSEQYLCGNDGVTYSSACHLRKATCLLGRSIGLAYEGKCIKAKSCEDIQCTGGKKCLWDFKVGRGRCSLCDELCPDSKSDEPVCASDNATYASECAMKEAACSSGVLLEVKHSGSCNSISEDTEEEEEDEDQDYSFPISSILEW
Regarding B1, in data set [3], the lung fibrosis result was “attenuated lung fibrosis”; the “number of macrophages and neutrophils in bronchoalveolar lavage” value was “significantly reduced”.

A word on the IC50: it is the concentration that inhibits the measured activity by half. A lower IC50 goes with greater potency.
